Experimental data from patent US10266493B2, “Thioacetate compounds, compositions and methods of use” (Ardea Biosciences, Inc., priority 2010, dated 2019).

molecular target: URAT1 (Homo sapiens, UniProt Q96S37); experiment: URAT1-model assay: 14C-uric acid transport in HEK293/URAT1-model cells; format: cell-based; conditions: HEK293 cells transfected with model URAT1 construct; 14C-uric acid uptake, 10 minutes at room temperature; read-out: URAT1 EC50 Activity Ranking
Experimental: Transfections of HEK293 cells with a model URAT1 construct was performed using L2000 transfection reagent (Invitrogen) as described by the manufacturer. After 24 h the transfected cells were split into 10 cm tissue culture plates and grown for 1 day after which the medium was replaced with fresh growth medium containing G418 (Gibco) at 0.5 mg/ml final concentration. Drug-resistant colonies were selected after approximately 8 days and then tested for ^14C-uric acid transport activity. The HEK293/URAT1-model cells are plated on Poly-D-Lysine Coated 96-well Plates at a density of 125,000 cells per well.
Cells were grown overnight (20-26 hours) at 37° C. in an incubator. […] Plates were incubated at room temperature for 10 minutes then washed 3 times with 50 μl Wash Buffer and 3 times with 250 μl Wash Buffer. Microscint 20 Scintillation Fluid was added and plates were incubated overnight at room temperature to equilibrate. Plates are then read on the TopCount Plate Reader and an EC50 value generated.

URAT1, sequence (Q96S37 whole entry, looked up): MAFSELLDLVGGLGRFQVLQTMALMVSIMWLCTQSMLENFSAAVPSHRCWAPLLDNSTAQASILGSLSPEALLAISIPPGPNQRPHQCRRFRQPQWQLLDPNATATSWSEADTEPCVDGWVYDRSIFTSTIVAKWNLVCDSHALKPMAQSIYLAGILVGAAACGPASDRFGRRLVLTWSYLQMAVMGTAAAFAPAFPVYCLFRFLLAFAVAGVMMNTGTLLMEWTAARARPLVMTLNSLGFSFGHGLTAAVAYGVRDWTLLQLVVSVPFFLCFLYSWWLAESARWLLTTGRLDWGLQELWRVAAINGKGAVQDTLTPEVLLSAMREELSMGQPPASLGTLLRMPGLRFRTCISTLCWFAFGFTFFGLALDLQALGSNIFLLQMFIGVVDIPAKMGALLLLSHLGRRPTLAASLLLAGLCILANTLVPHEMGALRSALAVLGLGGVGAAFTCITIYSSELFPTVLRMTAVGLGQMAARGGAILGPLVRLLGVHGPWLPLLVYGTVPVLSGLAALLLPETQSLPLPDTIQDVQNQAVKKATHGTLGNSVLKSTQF

EC50, 0.5 to 10 µM:
N#Cc1ccc(-c2cnccc2SCC(=O)O)c2ccccc12 [Example 2B]
CC(C)(Sc1ccncc1-c1ccc2c(c1)OCO2)C(=O)O [Example 2E]
N#Cc1ccc(-c2cnccc2SC(F)(F)C(=O)O)c2ccccc12 [Example 2FF]
CC(C)(Sc1ccncc1-c1cc2ccccc2[nH]1)C(=O)O [Example 2G]
CC(C)(Sc1ccncc1-c1ccc(C(=O)O)cc1F)C(=O)O [Example 2HHH]
COc1ncc(-c2cnccc2SC(C)(C)C(=O)O)cn1 [Example 2HH]
CC(C)(Sc1ccncc1-c1ccc2c(c1)OCCO2)C(=O)O [Example 2I]
Cc1ccc(-c2cnccc2SC(C)(C)C(=O)O)cn1 [Example 2LL]
CC(C)(Sc1ccncc1-c1cccc2cnccc12)C(=O)O [Example 2L]
CC(C)(Sc1ccncc1-c1cccnc1)C(=O)O [Example 2M]
CN(C)c1ccc(-c2cnccc2SC(C)(C)C(=O)O)cc1 [Example 2OO]
Cn1cc(-c2cnccc2SC(C)(C)C(=O)O)cn1 [Example 2QQ]
CC(C)(Sc1ccncc1-c1ccc(CC#N)cc1)C(=O)O [Example 2RR]
CC(C)(Sc1ccncc1-c1ccccc1)C(=O)O [Example 2R]
CC(C)(Sc1ccncc1-c1ccc(CC(N)=O)cc1)C(=O)O [Example 2SS]
COc1ccc2cc(-c3cnccc3SC(C)(C)C(=O)O)ccc2c1 [Example 2V]
CC(C)(Sc1ccncc1-c1ccc(N)cc1)C(=O)O [Example 2YY]
CCOc1ccc2cc(-c3cnccc3SC(C)(C)C(=O)O)ccc2c1 [Example 2Y]
CC(C)(Sc1ccncc1-c1ccc2ccccc2c1)C(=O)O [Example 2Z]
N#Cc1ccc(-c2cccnc2SCC(=O)O)c2ccccc12 [Example 4B]
CC(C)(Sc1ncncc1-c1ccc(C#N)c2ccccc12)C(=O)O [Example 6B, 2-(5-(4-cyanonaphthalen-1-yl)pyrimidin-4-ylthio)-2-methylpropanoic Acid]
